Activity calls are given as the source filed them.
Key:
[1] = target: Voltage-gated inwardly rectifying potassium channel KCNH2 (Homo sapiens, UniProt Q12809); conditions: Potency;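 also: confirmatory quantitative high-throughput screen measuring inhibition of hERG channel activity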
[2] = target: FAD-linked sulfhydryl oxidase ALR (Homo sapiens, UniProt P55789); experiment: inhibitors of human ALR sulfhydryl oxidase, dose response, biochemical, H2O2 detection, luminescence, cherry-pick (AID 493248)
[3] = target: T1, Apoptotic protease-activating factor 1 (Homo sapiens, UniProt O14727); experiment: activation of Apaf-1 mediated apoptosis – fluorescent, uHTS hits, dose response (AID 588554); format: functional
T1 sequence (O14727 whole entry): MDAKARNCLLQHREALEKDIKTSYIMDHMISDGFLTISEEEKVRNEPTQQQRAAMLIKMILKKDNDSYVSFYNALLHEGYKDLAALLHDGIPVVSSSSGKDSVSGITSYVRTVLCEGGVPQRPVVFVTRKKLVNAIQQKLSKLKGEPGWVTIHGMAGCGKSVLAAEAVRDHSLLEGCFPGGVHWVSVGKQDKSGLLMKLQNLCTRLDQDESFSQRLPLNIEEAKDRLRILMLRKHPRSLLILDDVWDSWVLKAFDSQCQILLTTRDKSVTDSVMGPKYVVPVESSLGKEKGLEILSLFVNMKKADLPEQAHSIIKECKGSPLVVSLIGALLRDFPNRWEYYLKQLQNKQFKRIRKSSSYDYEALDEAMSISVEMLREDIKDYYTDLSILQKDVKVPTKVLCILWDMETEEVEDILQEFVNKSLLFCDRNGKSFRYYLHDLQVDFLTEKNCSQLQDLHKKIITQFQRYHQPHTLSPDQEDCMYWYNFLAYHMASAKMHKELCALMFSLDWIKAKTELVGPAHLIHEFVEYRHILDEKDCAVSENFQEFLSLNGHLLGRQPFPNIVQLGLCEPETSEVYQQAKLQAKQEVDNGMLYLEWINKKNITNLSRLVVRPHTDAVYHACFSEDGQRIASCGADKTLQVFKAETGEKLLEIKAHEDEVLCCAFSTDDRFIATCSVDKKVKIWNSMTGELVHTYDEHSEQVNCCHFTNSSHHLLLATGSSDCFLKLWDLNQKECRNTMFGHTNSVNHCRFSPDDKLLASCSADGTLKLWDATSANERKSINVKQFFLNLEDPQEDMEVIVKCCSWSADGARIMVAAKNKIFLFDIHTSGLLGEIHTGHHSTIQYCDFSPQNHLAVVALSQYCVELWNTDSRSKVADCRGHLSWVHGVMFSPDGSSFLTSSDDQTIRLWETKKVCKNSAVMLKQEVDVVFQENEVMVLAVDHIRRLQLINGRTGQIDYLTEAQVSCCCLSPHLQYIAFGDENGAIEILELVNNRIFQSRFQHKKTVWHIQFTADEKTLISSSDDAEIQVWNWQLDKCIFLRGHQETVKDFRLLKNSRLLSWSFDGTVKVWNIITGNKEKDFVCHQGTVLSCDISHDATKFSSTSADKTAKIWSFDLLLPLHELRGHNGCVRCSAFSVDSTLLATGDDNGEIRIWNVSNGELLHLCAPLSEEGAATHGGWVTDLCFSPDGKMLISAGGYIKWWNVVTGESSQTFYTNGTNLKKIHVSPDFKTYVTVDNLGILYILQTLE

[4] = Shn3 3'UTR reporter inhibitors, dose response, cell-based, Clone20 osteoblasts, firefly luciferase, cherry-picked (AID 624132); format: functional;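 also: firefly luciferase luminescence from reporter carrying the Shn3 3'UTR in osteoblasts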
[5] = Luminescence Cell-Based Dose Retest to Confirm Inhibitors of Cancer Stem Cells. [Related pubchem assays (depositor defined):AID2717, AID2721]; format: functional; conditions: Homo sapiens
[6] = control 3'UTR Renilla luciferase suppression, dose response, counter-screen for Shn3 inhibitor project, cell-based, Clone20-Shn3RL, cherry-picked (AID 624133); format: functional
[7] = target: T2, Microphthalmia-associated transcription factor (Homo sapiens, UniProt O75030); experiment: TRPM1 promoter luciferase signal decrease, dose response, MITF inhibitor project, cell-based, SK-MEL-5, cherry-picked, set 3 (AID 493073); format: functional
T2 sequence (O75030 whole entry): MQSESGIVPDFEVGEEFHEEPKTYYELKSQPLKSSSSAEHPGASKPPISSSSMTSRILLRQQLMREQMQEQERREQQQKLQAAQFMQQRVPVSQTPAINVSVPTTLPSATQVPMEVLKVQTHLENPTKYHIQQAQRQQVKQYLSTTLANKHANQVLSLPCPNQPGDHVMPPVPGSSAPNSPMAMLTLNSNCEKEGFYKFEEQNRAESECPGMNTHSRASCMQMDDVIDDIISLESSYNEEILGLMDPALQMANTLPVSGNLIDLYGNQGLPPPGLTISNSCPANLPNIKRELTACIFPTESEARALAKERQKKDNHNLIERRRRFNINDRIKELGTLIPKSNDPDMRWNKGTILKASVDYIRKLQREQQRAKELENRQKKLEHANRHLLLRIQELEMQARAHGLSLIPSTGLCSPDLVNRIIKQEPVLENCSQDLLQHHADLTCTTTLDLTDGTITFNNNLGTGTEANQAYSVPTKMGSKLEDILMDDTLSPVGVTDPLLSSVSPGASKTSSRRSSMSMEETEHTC

Beta-galactosidase = Beta-galactosidase (Escherichia coli, UniProt Q8VNN2); experiment: beta-galactosidase enzyme inhibitors and activators, dose response, artefact control for CCR6 antagonist project, biochemical, E. coli enzyme, set 3 (AID 504712); format: functional
[8] = THP-1 cell cytotoxicity, dose response, cytotoxicity control for non-replicating M. tuberculosis project (AID 489025); format: functional
[9] = target: Eukaryotic translation initiation factor 4E (Mus musculus, UniProt P63073); experiment: eIF4E–eIF4G protein interaction inhibitors, dose response, biochemical, TR-FRET (AID 855); format: functional;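 also: potency for disrupting eIF4E binding to eIF4GI seen as loss of FRET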
A-375 [10] = experiment: MITF: Counter assay: A375 proliferation Measured in Cell-Based System Using Plate Reader - 2084-03_Inhibitor_Dose_DryPowder_Activity. [Related pubchem assays (depositor defined):AID488944]; format: functional; conditions: Homo sapiens
cells = format: functional
A-375 [11] = experiment: A375 melanoma cell viability reduction, dose response, counter-screen for MITF modulator project, cherry-pick samples, set 2 (AID 540335); format: functional, cell-based; conditions: Homo sapiens
[12] = HepG2 cell cytotoxicity, dose response, cytotoxicity control for Shn3 inhibitor project, CellTiter-Glo, cherry-picked (AID 624134); format: functional, cell-based
HeLa = experiment: HeLa cell cytotoxicity, dose response, cytotoxicity control for MITF activator project, CellTiter-Glo luminescence, cherry-pick samples (AID 540259); format: functional, cell-based; conditions: Homo sapiens
[13] = target: Serine/threonine-protein phosphatase (Candida dubliniensis (strain CD36 / CBS 7987 / NCPF 3949 / NRRLY-17841) (Yeast), UniProt B9W6M3); experiment: calcineurin pathway inhibitors in yeast reporter, dose response, S. cerevisiae, CDRE-lacZ, luminescence, secondary (AID 2388); format: functional, cell-based;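 also: yeast reporter cells carrying a calcineurin-responsive lacZ construct stimulated with calcium chloride; luminescent beta-galactosidase reporter signal in whole cells rather than isolated phosphatase activity; potency for inhibition where a drop in reporter signal means calcineurin blockade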
[14] = C. albicans growth with fluconazole, confirmation, fluorescence, retest (AID 2467); format: functional, cell-based
[15] = NIH-3T3 fibroblast cytotoxicity, dose response, cytotoxicity control, cell-based, fluorescence, Alamar Blue, secondary assay (AID 2327); format: functional;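 also: NIH-3T3 mouse fibroblasts cultured with fluconazole at 8 µg/mL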
Large T antigen = Large T antigen (Simian virus 40, UniProt P03070); format: functional, Betapolyomavirus macacae;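 also: Confirmatory-stage PubChem screen for compounds that inhibit SV40 T antigen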
[16] = target: ATP-dependent molecular chaperone HSP82 (Candida albicans (strain WO-1) (Yeast), UniProt C4YTQ8); experiment: loss of DOC-induced GRE-beta-galactosidase reporter signal, dose response, Hsp90 inhibitor project, S. cerevisiae, luminescence (AID 2400); format: functional, cell-based;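 also: beta-galactosidase luminescence from glucocorticoid response element reporter as proxy for Hsp90 function; inhibitor potency where signal loss means Hsp90 inhibition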
DNA topoisomerase = DNA topoisomerase (Yersinia pestis, UniProt A0A2S9PM60); experiment: Y. pestis Topo-I inhibitors, cleavage product readout, dose response, biochemical, cherry-pick (AID 588525)
CHO = experiment: cytotoxicity in TLR9-MyD88 CHO cells, dose response, cytotoxicity control for TLR9-MyD88 binding inhibitor project, cell-based, luminescence (AID 588339); format: functional, hamster; conditions: Cricetulus griseus;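 also: CHO cells stably coexpressing TLR9 and MyD88 fusions from primary screen; compound exposure lasted 48 hours before viability readout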
[17] = target: T3, Endoribonuclease toxin MazF (Escherichia coli K-12, UniProt P0AE70); experiment: fluorescent RNA oligo signal without MazF, dose response, counter-screen for MazEF activator project, biochemical, fluorescence, single-stranded RNase substrate (AID 588502); format: functional
[18] = target: T3, Endoribonuclease toxin MazF; experiment: MazF toxin RNase activators, dose response, biochemical, fluorescence, single-stranded RNA substrate, uHTS hits (AID 588481); format: functional
Beta Lactamase = Beta Lactamase (Pseudomonas aeruginosa, UniProt Q932Y6); experiment: beta-lactamase reporter inhibitor potency, dose response, artefact control for TLR9-MyD88 binding inhibitor project, BLA reporter cells, FRET fluorescence (AID 588341); format: cell-based;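 also: cell based assay in CHO-K1 cells stably expressing beta-lactamase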
[19] = target: Luciferin 4-monooxygenase (Photuris pensylvanica, UniProt Q27757); experiment: firefly luciferase enzyme inhibitors, dose response, counter-screen for HSF-1 reporter inhibitor project, biochemical, Cell Titer Glo, luminescence, cherry-picks (AID 588847)
Candida albicans [20] = experiment: growth inhibition of resistant C. albicans, dose response, CaCi-8 strain, fluconazole, dry powder, set 4 (AID 488950); format: functional, organism-based
Candida albicans [21] = experiment: fluconazole resistance reversal in C. albicans, dose response, CaCi-2 strain, Alamar Blue, dry powder, set 4 (AID 488943); format: functional, organism-based
Candida albicans [22] = experiment: growth inhibition of azole-resistant C. albicans, dose response, CaCi-8 strain, Alamar Blue, dry powder, set 2 (AID 488909); format: functional, organism-based
Candida albicans [23] = experiment: C. albicans growth inhibition with fluconazole, dose response, antifungal resistance reversal project, CaCi-2 strain, Alamar Blue, dry powder, set 2 (AID 488930); format: functional, organism-based
[24] = target: Glycogen synthase kinase-3 beta (Homo sapiens, UniProt P49841); experiment: Inhibition of Human GSK-3 beta Activity Measured in Biochemical System Using Microfluidics - 2063-05_Inhibitor_Dose_DryPowder_Activity_Set2. [Related pubchem assays (depositor defined):AID2709]
[25] = target: Glycogen synthase kinase-3 alpha (Homo sapiens, UniProt P49840); experiment: Inhibition of Human GSK-3 alpha Activity Measured in Biochemical System Using Microfluidics - 2063-06_Inhibitor_Dose_DryPowder_Activity_Set2. [Related pubchem assays (depositor defined):AID2709]
[26] = target: Cyclin-dependent kinase 5/CDK5 activator 1 (Homo sapiens, UniProt Q00535); experiment: CDK5-p25 kinase inhibitors, specificity check, dose response, selectivity assay for GSK-3 alpha inhibitor project, biochemical, microfluidic mobility shift, dry powder (AID 588430)
HEK293 [27] = experiment: cytotoxicity in HEK293T NF-kB-Luc cells, SAR follow-up, cytotoxicity control for NF-kB activator project, cell-based, resazurin fluorescence (AID 493251); format: functional; conditions: Homo sapiens
Jurkat = experiment: SAR Analysis of small molecule inhibitors of […] specific antigen receptor-induced NF-kB activation in a Jurkat cell line using a luminescence assay - Set 3. [Related pubchem assays (depositor defined):AID435022, AID435025, AID465]; format: functional, cell-based; conditions: Homo sapiens
HEK293 [28] = experiment: SAR Analysis of small molecule inhibitors of B-cell specific antigen receptor-induced NF-kB activation in a HEK-293T cell line using a luminescence assay - Set 2. [Related pubchem assays (depositor defined):AID435022, AID435025, AID489021]; format: functional, cell-based; conditions: Homo sapiens

T3 sequence (P0AE70 whole entry): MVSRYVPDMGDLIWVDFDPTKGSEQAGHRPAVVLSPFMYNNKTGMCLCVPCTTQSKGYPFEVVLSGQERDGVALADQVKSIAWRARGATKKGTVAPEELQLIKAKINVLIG
Sequence of Beta Lactamase (Q932Y6 whole entry): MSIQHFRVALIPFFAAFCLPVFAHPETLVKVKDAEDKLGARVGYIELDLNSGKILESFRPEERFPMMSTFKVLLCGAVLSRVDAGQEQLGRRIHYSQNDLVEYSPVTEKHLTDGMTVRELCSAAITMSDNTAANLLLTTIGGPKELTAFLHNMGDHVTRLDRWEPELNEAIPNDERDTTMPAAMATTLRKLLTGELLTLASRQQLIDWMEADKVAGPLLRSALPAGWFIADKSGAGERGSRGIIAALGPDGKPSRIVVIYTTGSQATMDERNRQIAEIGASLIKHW
Sequence of Voltage-gated inwardly rectifying potassium channel KCNH2 (Q12809 whole entry): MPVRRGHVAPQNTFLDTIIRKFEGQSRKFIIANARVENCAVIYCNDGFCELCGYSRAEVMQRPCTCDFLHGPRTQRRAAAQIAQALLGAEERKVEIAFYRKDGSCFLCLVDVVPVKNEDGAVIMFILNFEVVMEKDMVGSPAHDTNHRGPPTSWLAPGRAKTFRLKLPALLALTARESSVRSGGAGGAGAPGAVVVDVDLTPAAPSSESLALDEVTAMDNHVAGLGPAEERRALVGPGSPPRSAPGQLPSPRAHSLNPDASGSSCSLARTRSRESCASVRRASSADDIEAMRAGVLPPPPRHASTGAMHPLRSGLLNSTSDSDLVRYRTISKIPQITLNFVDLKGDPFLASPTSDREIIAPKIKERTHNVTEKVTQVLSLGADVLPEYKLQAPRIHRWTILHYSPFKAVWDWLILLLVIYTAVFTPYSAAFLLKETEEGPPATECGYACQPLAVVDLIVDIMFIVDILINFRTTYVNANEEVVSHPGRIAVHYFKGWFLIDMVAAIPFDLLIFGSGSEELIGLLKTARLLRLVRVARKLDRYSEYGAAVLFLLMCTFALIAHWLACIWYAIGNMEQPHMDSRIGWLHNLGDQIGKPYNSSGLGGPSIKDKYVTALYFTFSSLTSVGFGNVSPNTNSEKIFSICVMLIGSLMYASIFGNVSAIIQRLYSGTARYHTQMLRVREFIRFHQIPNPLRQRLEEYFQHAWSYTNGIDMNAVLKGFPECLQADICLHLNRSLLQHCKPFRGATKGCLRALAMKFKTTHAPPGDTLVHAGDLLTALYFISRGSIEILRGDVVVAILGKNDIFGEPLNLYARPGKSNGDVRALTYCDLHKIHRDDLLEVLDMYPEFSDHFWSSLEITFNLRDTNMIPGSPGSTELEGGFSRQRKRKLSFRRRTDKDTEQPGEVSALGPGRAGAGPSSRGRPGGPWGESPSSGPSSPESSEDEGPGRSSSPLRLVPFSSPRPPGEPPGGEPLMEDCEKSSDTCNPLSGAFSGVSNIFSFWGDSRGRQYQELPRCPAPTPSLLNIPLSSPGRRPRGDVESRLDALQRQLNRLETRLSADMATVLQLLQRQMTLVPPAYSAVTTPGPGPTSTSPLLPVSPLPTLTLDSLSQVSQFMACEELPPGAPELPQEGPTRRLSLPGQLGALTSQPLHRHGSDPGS
Sequence of Serine/threonine-protein phosphatase (B9W6M3 whole entry): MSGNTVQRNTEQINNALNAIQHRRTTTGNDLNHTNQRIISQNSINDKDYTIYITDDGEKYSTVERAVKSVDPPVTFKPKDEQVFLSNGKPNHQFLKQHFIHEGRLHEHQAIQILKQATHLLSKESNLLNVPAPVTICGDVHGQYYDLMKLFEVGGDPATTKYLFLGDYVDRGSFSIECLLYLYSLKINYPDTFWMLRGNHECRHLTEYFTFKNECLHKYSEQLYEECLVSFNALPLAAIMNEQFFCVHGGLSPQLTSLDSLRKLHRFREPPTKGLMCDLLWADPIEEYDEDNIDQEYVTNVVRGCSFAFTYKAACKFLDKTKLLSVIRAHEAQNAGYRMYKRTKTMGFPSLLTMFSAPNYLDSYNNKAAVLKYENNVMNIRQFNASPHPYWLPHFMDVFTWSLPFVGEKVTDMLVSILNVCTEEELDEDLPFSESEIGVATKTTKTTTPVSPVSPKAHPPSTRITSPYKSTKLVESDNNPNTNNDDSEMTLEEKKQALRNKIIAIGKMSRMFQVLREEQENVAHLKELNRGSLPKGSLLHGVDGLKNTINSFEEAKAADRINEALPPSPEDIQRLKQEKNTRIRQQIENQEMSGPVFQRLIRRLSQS
Sequence of Large T antigen (P03070 whole entry): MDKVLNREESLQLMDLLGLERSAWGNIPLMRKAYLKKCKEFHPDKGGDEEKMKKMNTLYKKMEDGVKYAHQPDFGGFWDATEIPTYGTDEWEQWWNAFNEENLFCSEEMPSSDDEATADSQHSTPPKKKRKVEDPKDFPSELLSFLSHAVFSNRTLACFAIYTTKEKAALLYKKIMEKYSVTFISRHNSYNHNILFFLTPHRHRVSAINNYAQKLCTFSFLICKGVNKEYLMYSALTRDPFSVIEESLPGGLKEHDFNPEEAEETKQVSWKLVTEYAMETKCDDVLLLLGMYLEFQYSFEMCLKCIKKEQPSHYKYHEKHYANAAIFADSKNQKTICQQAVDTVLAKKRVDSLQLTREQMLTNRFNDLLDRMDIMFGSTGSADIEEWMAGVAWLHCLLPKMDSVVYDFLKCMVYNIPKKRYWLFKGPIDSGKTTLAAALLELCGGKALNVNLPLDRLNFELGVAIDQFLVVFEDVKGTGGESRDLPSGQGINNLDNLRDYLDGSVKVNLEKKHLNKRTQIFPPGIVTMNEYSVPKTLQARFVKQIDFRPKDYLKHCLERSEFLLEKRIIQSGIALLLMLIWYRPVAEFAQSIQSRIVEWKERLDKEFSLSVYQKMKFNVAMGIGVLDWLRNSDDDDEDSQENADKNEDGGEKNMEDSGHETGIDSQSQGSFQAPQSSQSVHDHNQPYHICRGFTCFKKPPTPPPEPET
Sequence of Glycogen synthase kinase-3 beta (P49841 whole entry): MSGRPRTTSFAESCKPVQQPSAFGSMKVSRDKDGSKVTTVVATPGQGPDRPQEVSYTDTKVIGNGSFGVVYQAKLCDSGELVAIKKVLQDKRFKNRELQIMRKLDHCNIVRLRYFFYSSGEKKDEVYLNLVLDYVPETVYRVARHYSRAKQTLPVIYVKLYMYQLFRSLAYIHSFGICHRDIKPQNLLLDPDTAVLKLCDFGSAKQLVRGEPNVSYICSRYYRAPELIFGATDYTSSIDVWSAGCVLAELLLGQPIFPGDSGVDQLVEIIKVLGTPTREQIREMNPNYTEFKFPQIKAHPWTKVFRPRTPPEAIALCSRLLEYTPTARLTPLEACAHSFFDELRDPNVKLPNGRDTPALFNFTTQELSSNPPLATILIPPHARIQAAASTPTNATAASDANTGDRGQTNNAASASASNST
Sequence of ATP-dependent molecular chaperone HSP82 (C4YTQ8 whole entry): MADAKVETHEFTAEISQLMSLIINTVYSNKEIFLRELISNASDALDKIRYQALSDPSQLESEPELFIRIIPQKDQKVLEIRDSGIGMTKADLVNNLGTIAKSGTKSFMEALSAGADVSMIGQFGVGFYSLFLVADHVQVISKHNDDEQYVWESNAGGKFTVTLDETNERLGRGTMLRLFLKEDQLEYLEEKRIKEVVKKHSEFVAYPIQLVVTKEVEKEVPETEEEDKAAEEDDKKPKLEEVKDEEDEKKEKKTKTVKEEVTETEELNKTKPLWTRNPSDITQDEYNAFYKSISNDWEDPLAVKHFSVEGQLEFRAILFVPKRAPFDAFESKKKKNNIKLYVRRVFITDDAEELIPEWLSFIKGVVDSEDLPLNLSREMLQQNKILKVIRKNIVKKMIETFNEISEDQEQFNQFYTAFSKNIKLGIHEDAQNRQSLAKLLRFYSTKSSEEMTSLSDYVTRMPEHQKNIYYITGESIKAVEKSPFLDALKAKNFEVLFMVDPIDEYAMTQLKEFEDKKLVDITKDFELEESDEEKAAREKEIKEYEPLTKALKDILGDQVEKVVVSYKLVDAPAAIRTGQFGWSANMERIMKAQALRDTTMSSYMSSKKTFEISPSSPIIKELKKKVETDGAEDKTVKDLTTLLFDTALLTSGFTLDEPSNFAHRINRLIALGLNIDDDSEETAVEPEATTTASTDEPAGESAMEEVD
Sequence of Beta-galactosidase (Q8VNN2 whole entry): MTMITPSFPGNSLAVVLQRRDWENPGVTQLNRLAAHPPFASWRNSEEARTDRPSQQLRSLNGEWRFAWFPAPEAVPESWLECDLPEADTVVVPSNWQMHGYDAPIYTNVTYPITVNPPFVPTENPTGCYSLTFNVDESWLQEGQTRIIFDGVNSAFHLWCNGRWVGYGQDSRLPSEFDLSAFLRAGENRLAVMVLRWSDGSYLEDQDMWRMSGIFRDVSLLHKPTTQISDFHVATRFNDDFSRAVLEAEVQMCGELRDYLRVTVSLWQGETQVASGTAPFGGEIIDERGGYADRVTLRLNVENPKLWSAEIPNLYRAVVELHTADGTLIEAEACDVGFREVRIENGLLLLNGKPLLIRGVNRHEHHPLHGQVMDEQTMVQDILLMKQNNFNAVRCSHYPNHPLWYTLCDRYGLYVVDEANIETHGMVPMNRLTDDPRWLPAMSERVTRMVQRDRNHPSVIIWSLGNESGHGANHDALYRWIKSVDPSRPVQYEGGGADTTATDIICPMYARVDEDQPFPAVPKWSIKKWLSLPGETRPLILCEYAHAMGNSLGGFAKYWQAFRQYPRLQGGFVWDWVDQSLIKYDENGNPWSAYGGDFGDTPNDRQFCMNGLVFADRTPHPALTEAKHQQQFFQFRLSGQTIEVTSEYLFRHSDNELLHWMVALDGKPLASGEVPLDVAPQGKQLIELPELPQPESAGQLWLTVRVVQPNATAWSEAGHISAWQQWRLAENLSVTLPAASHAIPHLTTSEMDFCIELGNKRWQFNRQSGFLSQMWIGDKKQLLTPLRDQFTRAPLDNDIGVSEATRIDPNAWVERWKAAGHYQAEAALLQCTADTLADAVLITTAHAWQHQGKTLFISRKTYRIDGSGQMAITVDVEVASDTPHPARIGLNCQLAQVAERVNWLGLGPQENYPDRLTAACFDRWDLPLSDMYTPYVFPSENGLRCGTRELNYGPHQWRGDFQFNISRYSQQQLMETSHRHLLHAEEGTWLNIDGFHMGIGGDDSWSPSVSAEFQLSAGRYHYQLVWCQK

COc1ccccc1N1CCN(CCN(C(=O)C2CCCCC2)c2ccccn2)CC1
AC50 [1]: 31.6 µM (inconclusive)

N#CCCn1cc(C(CC(=O)c2ccc(Br)cc2)C(=O)O)c2ccccc21 (stereo unspecified)
AC50 [2]: > 100 µM (inactive)
EC50 [3]: 22.9 µM (active)

Cc1ccc(Oc2c(C(N)=O)cc([N+](=O)[O-])cc2[N+](=O)[O-])cc1
AC50 [4]: 11.9 µM (active)
AC50 [5]: 2.99 µM (active)
AC50 [6]: 4.73 µM (active)
AC50 [7]: 3.68 µM (active)
IC50 (Beta-galactosidase): > 66.6 µM (inactive)
CC50 [8]: 22.4 µM (active)
IC50 [9]: > 64 µM (inactive)
AC50 (A-375 [10]): > 11 µM (active)
IC50 (cells): 1.31 µM (active)
AC50 (A-375 [11]): > 11 µM (active)
AC50 [12]: 25.2 µM (active)

Cc1ccc(C(=O)O/N=C(\N)c2ccc(Br)cc2)cc1
AC50 (HeLa): 48.5 µM (active)

O=Nc1c(-c2cccc([N+](=O)[O-])c2)nc2ncccn12
EC50 [13]: 0.828 µM (active)
EC50 [14]: 1.11 µM (active)
EC50 [15]: > 160 µM (inconclusive)
IC50 (Large T antigen): 32.5 µM (active)
EC50 [16]: 0.826 µM (active)

Cc1ccc(S(=O)(=O)N=C(N)Nc2nc(C)c3cc(C)ccc3n2)cc1
AC50 (DNA topoisomerase): 14.2 µM (active)

COc1ccc(OC)c(/C=C/c2nc3ccccc3nc2O)c1
IC50 (CHO): 28.4 µM (inactive)
EC50 [17]: > 99 µM (inactive)
EC50 [18]: > 99 µM (inactive)
IC50 (Beta Lactamase): 8.5 µM (active)

CC12CCC(=O)C=C1CCC1C2C(O)CC2(C)C1CCC2(O)C(=O)CO (stereo unspecified)
AC50 [19]: > 52 µM (inactive)

O=C(C1CCCC1)N1CCN(c2ccnc3cc(Cl)ccc23)CC1
AC50 (Candida albicans [20]): 1.71 µM (active)
AC50 (Candida albicans [21]): 2.08 µM (active)
AC50 (Candida albicans [22]): 2.01 µM (active)
AC50 (Candida albicans [23]): 0.566 µM (active)

COc1cc(/C=N/Nc2ccc([N+](=O)[O-])cn2)cc(OC)c1O
AC50 [24]: 0.095 µM (active)
AC50 [25]: 0.367 µM (active)
AC50 [26]: 1.55 µM (active)

CCOCCCNC(=O)CSCc1nc(-c2ccc(OCC)cc2)oc1C
IC50 (HEK293 [27]): > 80 µM (inactive)
IC50 (Jurkat): 51.9 µM (inactive)
IC50 (HEK293 [28]): > 80 µM (inactive)
